Tests used:
[1] = refractive index (Na D-line) (dimensionless); xn = mol fraction of the nth substance listed; conditions: 101.3 kPa, Liquid, Standard Abbe refractometry
[2] = xn = mol fraction of the nth substance listed; conditions: 101.3 kPa, Liquid; for speed of sound: Frequency=3 MHz, Sing-around technique in a fixed-path interferometer; for mass density: Vibrating tube method

CCOc1ccccc1 [ethoxybenzene] + CN(C)C=O
Conditions | mass density, 298 K [kg/m3] | mass density, 303 K [kg/m3] | mass density, 308 K [kg/m3] | refractive index, 298 K | refractive index, 303 K | refractive index, 308 K | speed of sound, 298 K [m/s] | speed of sound, 303 K [m/s] | speed of sound, 308 K [m/s]
[1], x1 = 0.031 | – | – | – | 1.431 | 1.43 | 1.427 | – | – | –
[1], x1 = 0.091 | – | – | – | 1.437 | 1.435 | 1.432 | – | – | –
[1], x1 = 0.153 | – | – | – | 1.442 | 1.44 | 1.437 | – | – | –
[1], x1 = 0.223 | – | – | – | 1.448 | 1.446 | 1.442 | – | – | –
[1], x1 = 0.304 | – | – | – | 1.455 | 1.452 | 1.449 | – | – | –
[1], x1 = 0.463 | – | – | – | 1.468 | 1.465 | 1.461 | – | – | –
[1], x1 = 0.556 | – | – | – | 1.475 | 1.471 | 1.468 | – | – | –
[1], x1 = 0.642 | – | – | – | 1.481 | 1.478 | 1.474 | – | – | –
[1], x1 = 0.8 | – | – | – | 1.493 | 1.489 | 1.485 | – | – | –
[1], x1 = 1 | – | – | – | 1.505 | 1.503 | 1.499 | – | – | –
[2], x1 = 0.031 | 946 | 941 | 936 | – | – | – | 1452 | 1432 | 1415
[2], x1 = 0.091 | 948 | 943 | 939 | – | – | – | 1443 | 1424 | 1406
[2], x1 = 0.153 | 950 | 945 | 941 | – | – | – | 1435 | 1415 | 1398
[2], x1 = 0.223 | 952 | 947 | 943 | – | – | – | 1427 | 1407 | 1389
[2], x1 = 0.304 | 954 | 949 | 945 | – | – | – | 1418 | 1398 | 1380
[2], x1 = 0.463 | 956 | 952 | 948 | – | – | – | 1403 | 1383 | 1365
[2], x1 = 0.556 | 957 | 953 | 949 | – | – | – | 1396 | 1376 | 1357
[2], x1 = 0.642 | 958 | 954 | 949 | – | – | – | 1390 | 1370 | 1350
[2], x1 = 0.8 | 959 | 955 | 950 | – | – | – | 1379 | 1360 | 1340
[2], x1 = 1 | 960 | 955 | 951 | – | – | – | 1369 | 1349 | 1329

CCOc1ccccc1 [ethoxybenzene] + CN1CCCC1=O
Conditions | mass density, 298 K [kg/m3] | mass density, 303 K [kg/m3] | mass density, 308 K [kg/m3] | refractive index, 298 K | refractive index, 303 K | refractive index, 308 K | speed of sound, 298 K [m/s] | speed of sound, 303 K [m/s] | speed of sound, 308 K [m/s]
[1], x1 = 0.041 | – | – | – | 1.469 | 1.468 | 1.466 | – | – | –
[1], x1 = 0.122 | – | – | – | 1.474 | 1.472 | 1.469 | – | – | –
[1], x1 = 0.201 | – | – | – | 1.478 | 1.475 | 1.473 | – | – | –
[1], x1 = 0.273 | – | – | – | 1.481 | 1.479 | 1.476 | – | – | –
[1], x1 = 0.37 | – | – | – | 1.485 | 1.483 | 1.48 | – | – | –
[1], x1 = 0.504 | – | – | – | 1.491 | 1.488 | 1.485 | – | – | –
[1], x1 = 0.628 | – | – | – | 1.495 | 1.492 | 1.489 | – | – | –
[1], x1 = 0.709 | – | – | – | 1.498 | 1.495 | 1.491 | – | – | –
[1], x1 = 0.822 | – | – | – | 1.501 | 1.498 | 1.495 | – | – | –
[1], x1 = 1 | – | – | – | 1.505 | 1.503 | 1.499 | – | – | –
[2], x1 = 0.041 | 1023 | 1019 | 1015 | – | – | – | 1534 | 1515 | 1497
[2], x1 = 0.122 | 1018 | 1014 | 1010 | – | – | – | 1513 | 1495 | 1477
[2], x1 = 0.201 | 1013 | 1009 | 1005 | – | – | – | 1495 | 1477 | 1460
[2], x1 = 0.273 | 1008 | 1004 | 1000 | – | – | – | 1480 | 1462 | 1445
[2], x1 = 0.37 | 1001 | 997 | 993 | – | – | – | 1460 | 1443 | 1427
[2], x1 = 0.504 | 992 | 988 | 983 | – | – | – | 1437 | 1420 | 1403
[2], x1 = 0.628 | 983 | 979 | 975 | – | – | – | 1418 | 1400 | 1383
[2], x1 = 0.709 | 978 | 974 | 969 | – | – | – | 1406 | 1388 | 1370
[2], x1 = 0.822 | 971 | 966 | 962 | – | – | – | 1391 | 1372 | 1354
[2], x1 = 1 | 960 | 955 | 951 | – | – | – | 1369 | 1349 | 1329

CCOc1ccccc1 [ethoxybenzene] + C1CCOC1
Conditions | mass density, 298 K [kg/m3] | mass density, 303 K [kg/m3] | mass density, 308 K [kg/m3] | refractive index, 298 K | refractive index, 303 K | refractive index, 308 K | speed of sound, 298 K [m/s] | speed of sound, 303 K [m/s] | speed of sound, 308 K [m/s]
[1], x1 = 0.031 | – | – | – | 1.41 | 1.408 | 1.405 | – | – | –
[1], x1 = 0.072 | – | – | – | 1.417 | 1.414 | 1.412 | – | – | –
[1], x1 = 0.117 | – | – | – | 1.424 | 1.422 | 1.419 | – | – | –
[1], x1 = 0.197 | – | – | – | 1.436 | 1.433 | 1.43 | – | – | –
[1], x1 = 0.246 | – | – | – | 1.443 | 1.44 | 1.437 | – | – | –
[1], x1 = 0.326 | – | – | – | 1.453 | 1.45 | 1.447 | – | – | –
[1], x1 = 0.492 | – | – | – | 1.472 | 1.469 | 1.466 | – | – | –
[1], x1 = 0.695 | – | – | – | 1.49 | 1.487 | 1.483 | – | – | –
[1], x1 = 0.899 | – | – | – | 1.502 | 1.499 | 1.494 | – | – | –
[1], x1 = 1 | – | – | – | 1.505 | 1.503 | 1.499 | – | – | –
[2], x1 = 0.031 | 886 | 883 | 878 | – | – | – | 1279 | 1255 | 1230
[2], x1 = 0.072 | 892 | 888 | 883 | – | – | – | 1281 | 1256 | 1231
[2], x1 = 0.117 | 897 | 893 | 888 | – | – | – | 1283 | 1258 | 1233
[2], x1 = 0.197 | 905 | 901 | 897 | – | – | – | 1287 | 1262 | 1237
[2], x1 = 0.246 | 910 | 906 | 902 | – | – | – | 1289 | 1265 | 1241
[2], x1 = 0.326 | 918 | 913 | 909 | – | – | – | 1295 | 1271 | 1247
[2], x1 = 0.492 | 931 | 927 | 922 | – | – | – | 1310 | 1287 | 1264
[2], x1 = 0.695 | 944 | 940 | 935 | – | – | – | 1332 | 1309 | 1287
[2], x1 = 0.899 | 955 | 951 | 946 | – | – | – | 1356 | 1334 | 1314
[2], x1 = 1 | 960 | 955 | 951 | – | – | – | 1369 | 1349 | 1329
